The values that follow come from patent publication US20210073352A9, “SYSTEM AND METHOD FOR DRUG TARGET AND BIOMARKER DISCOVERY AND DIAGNOSIS USING A MULTIDIMENSIONAL MULTISCALE MODULE MAP” (Data4Cure, Inc., priority 2015, published 2021).

Entries after “also recorded” stand apart in the source; their conditions may differ.

The assay relates to 504 cancer cell lines. The experiment in a line: Drug sensitivity (IC50 index) of cancer cell lines with versus without a mutation in a module, compared by T-test. It is filed as cell-based. To be noted: for T-Statistic, sensitivity to drug vs mutation in module: T-test of IC50 scores, cell lines with vs without mutation. From the text: An inference engine can be used to identify an association between drug sensitivity of a sample and module activity or mutation status. For example, by using a statistical test to compare the IC 50 indexes or other measures of drug sensitivity known to those skilled in the art, for two or more classes of samples determined by the presence or absence of a mutation within a module of interest or determined by a module feature (e.g. high or low activity). A statistical test, such as, for example, a T-test or Wilcoxon test or another test known to those skilled in the art can be used to compare the IC50 scores across two sets of samples. By way of example and not of limitation, an ANOVA analysis can be used to compare such scores over two or more classes of samples.
Change in drug sensitivity conditional on sample class determined by module activity or mutation status can be computed, for example, by using a statistical test by comparing, for example, the IC 50 indexes or other measures of drug sensitivity known to those skilled in the art, for two or more classes of samples. A statistical test, such as, for example, a T-test or Wilcoxon test or another test known to those skilled in the art can be used to compare the IC50 scores across two sets of samples. By way of example and not of limitation, an ANOVA analysis can be used to compare such scores over two or more classes of samples.
The Broad GDAC Firehose provides publicly-available preprocessed TCGA level 3 data and level 4 analyses packaged in a form amenable to immediate algorithmic intake (Marx, V. et al. Nat. Methods 10, 293-297 (2013); incorporated by reference in its entirety). From this resource gene mutations were obtained, copy-number variants and mRNA expression levels (microarray and RNAseq) for human subjects as well as selected clinical data such as overall patient survival and the list of administered oncology drugs for each patient were also obtained. Molecular data (including somatic mutations) as well as drug sensitivity data for 504 cancer cell lines were obtained, deposited and made publicly available by the Sage Bionetworks Synapse platform (Friend, S. et al. Cancer Discov. 2, 658 (2012); hereby incorporated by reference in its entirety).
A multidimensional multiscale map was generated where module colors indicate the change in drug sensitivity depending on the mutation status of a given module (i.e. module can contain a mutation in one of the genes or not) [FIG. 11]. The change is computed by comparing drug sensitivity for samples with or without mutations within genes belonging to a module. Drug sensitivity was measured by the IC 50 index (Soothill, J. S. et al. J. Antimicrob. Chemother. 29, 137-139 (1992); hereby incorporated by reference in its entirety). A T-test was used to compare the IC50 scores across two sets of samples. […] Cell lines with a relevant mutation are indicated as “1” in the boxplot and tend to have lower IC 50 values indicating higher sensitivity to AZD6244.

Where [1] appears, read: mutations in genes of module 16157.
Setting [2] is: mutations in genes of module 16873.
[3] abbreviates: mutations in genes of module 17552.
The mark [4] stands for this setting: mutations in genes of module 17611.

Take `Cn1cnc2c(F)c(Nc3ccc(Br)cc3Cl)c(C(=O)NOCCO)cc21` [AZD6244]: the “change in drug sensitivity with module mutation” value (shortened to “change in drug sensitivity”) (module number 17454 as printed, FIG. 11) is recorded as “increased sensitivity”; the “change in drug sensitivity” value under setting [1] is reported as “more sensitive”; the “change in drug sensitivity” value under setting [2] is reported as “more sensitive”; the “change in drug sensitivity” value under setting [3] is reported as “increased sensitivity; also recorded: more sensitive”; the “change in drug sensitivity” value under setting [4] was “more sensitive”. Moreover, the “T-Statistic, sensitivity to drug vs mutation in module” value (from here on “T-Statistic … vs mutation in module”) runs as follows: (mutation in module 16157) −6.876; (mutation in module 16873) −9.937; (mutation in module 17552) −8.56; (mutation in module 17611) −7.071.

As for `O=C(NOC[C@H](O)CO)c1ccc(F)c(F)c1Nc1ccc(I)cc1F` [PD.0325901], the “T-Statistic … vs mutation in module” value (mutation in module 16157) is on record as −6.692; the “T-Statistic … vs mutation in module” value (mutation in module 16873) was −10.52; the “T-Statistic … vs mutation in module” value (mutation in module 17552) was −8.774; the “T-Statistic … vs mutation in module” value (mutation in module 17611) is reported as −7.111. Further, the “change in drug sensitivity” value under setting [1] is “more sensitive”, the “change in drug sensitivity” value under setting [2] is on record as “more sensitive”, the “change in drug sensitivity” value under setting [3] is recorded as “more sensitive” and the “change in drug sensitivity” value under setting [4] is on record as “more sensitive”.
